Experimental data reported in patent US11834453B2, “Substituted pyrimido[5,4-d]pyrimidines as HER2 inhibitors” (Array BioPharma Inc., priority 2020, dated 2023).
Like-named read-outs stand apart in the source and are kept apart here.

How the values were obtained:
ErbB2 WT = ErbB2 WT (Homo sapiens (Human), UniProt P04626); experiment: ErbB enzyme assay (CisBio HTRF KinEASE-TK), Assay 2; format: biochemical
Summary of the method: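 ErbB2 phosphorylates 250 nM biotin-TK substrate at 1 mM ATP in 25 mM HEPES pH 7.4, 10 mM MgCl2, 0.01% Triton X-100 and 2% DMSO, for 30 min at 22 °C. Product is detected by HTRF with Sa-XL665 and TK-Ab-Cryptate. Percent of control is set by DMSO-only wells and pre-quenched wells.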

EGFR wild type (EGFR WT) = EGFR wild type (EGFR WT) (Homo sapiens (Human), UniProt P00533); experiment: Cellular phosphorylation assay, EGF-stimulated EGFR phosphorylation in engineered NIH 3T3 cells, Phospho-EGFR DuoSet IC ELISA, Assay 5; format: cell-based
Chain of EGFR wild type (EGFR WT) (P00533 25-1210): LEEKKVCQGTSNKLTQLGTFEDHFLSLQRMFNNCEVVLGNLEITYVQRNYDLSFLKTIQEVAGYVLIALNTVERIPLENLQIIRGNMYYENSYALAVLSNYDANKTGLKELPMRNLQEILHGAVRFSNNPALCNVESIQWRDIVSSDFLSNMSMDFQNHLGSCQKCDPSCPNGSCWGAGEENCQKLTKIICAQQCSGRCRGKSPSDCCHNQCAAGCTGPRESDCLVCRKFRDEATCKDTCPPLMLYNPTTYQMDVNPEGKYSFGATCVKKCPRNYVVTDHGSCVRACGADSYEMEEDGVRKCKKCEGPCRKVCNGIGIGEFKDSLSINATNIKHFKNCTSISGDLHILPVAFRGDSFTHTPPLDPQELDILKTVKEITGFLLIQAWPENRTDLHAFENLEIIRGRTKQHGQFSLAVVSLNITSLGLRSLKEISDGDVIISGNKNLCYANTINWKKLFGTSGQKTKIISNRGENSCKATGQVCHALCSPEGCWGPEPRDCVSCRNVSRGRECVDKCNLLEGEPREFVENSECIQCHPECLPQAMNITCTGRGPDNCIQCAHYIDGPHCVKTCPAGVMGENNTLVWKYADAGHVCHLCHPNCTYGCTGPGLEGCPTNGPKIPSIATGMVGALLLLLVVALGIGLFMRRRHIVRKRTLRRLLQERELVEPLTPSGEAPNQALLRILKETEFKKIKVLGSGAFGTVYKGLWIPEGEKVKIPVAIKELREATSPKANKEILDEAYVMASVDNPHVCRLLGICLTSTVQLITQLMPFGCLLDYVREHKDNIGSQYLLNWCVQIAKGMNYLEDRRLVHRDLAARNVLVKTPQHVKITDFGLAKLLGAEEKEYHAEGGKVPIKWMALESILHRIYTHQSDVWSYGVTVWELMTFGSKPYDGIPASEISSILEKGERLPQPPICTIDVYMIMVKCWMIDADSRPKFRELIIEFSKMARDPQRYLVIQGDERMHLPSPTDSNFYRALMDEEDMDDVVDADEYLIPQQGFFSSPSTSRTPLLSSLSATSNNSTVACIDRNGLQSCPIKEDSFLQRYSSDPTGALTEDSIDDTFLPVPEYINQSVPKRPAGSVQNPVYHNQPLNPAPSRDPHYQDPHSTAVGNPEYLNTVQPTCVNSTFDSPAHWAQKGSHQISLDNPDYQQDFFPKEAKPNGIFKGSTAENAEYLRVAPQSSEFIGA
Summary of the method: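 NIH 3T3 cells expressing EGFR WT (20,000/well, attached overnight) were exposed to serially diluted compound for 1 h at 37 °C, then stimulated with 100 ng/ml rEGF for 10 min. Phospho-EGFR in lysates measured by sandwich ELISA optical density; IC50 from curves.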

EGFR = EGFR (Homo sapiens (Human), UniProt P00533); experiment: ErbB enzyme assay (CisBio HTRF KinEASE-TK), Assay 3; format: biochemical
Chain of EGFR (P00533 25-1210): as above
Summary of the method: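 Kinase incubated 30 min at 22 °C with 250 nM biotinylated TK substrate, 1 mM ATP and serially diluted compound in 25 mM HEPES pH 7.4, 10 mM MgCl2, 0.01% Triton X-100, 2% DMSO. Phosphorylation read by HTRF (Sa-XL665/TK-Ab-Cryptate); IC50 from 4-parameter fit of percent of control.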

MDR1 (P-gp) [1] = biological target: T1, MDR1 (P-gp) (Homo sapiens (Human), UniProt P08183); experiment: MDR1 transfected LLC-PK1 permeability/efflux, Assay 6; settings: pig, LLC-PK1, Assay 6 Pe Ratio, efflux ratio Papp(B-A)/Papp(A-B), MDR1 transfected LLC-PK1
Protocol: (§1) Both MDR1 transfected LLC-PK1 (Assay 6) and MDR1 transfected MDCKII canine Mdr1 knockout cells (Assay 7) were cultured and plated according to manufacturer's recommendations with the exception that the passage media for the MDR1 transfected LLC-PK1 cell line contained only 2% fetal bovine serum so as to extend passage time out to seven days.
(§2) Both positive and negative controls were used to assess functionality of P-gp or BCRP efflux in the assays. Stock solutions for assay controls and the test article were prepared in DMSO for final test concentration of 1 μM. Final organic concentration in the assay was 1%. All dosing solutions contained 10 μM lucifer yellow to monitor MDCKII cell monolayer integrity.
(§3) For the apical to basolateral determination (A to B), 75 μL of the test article in transport buffer were added to the apical side of the individual transwells and 250 μL of basolateral media, without compound or lucifer yellow, were added to each well. For the basolateral to apical determination (B to A), 250 μL of test article in transport buffer were added to each well and 75 μL transport buffer, without compound or lucifer yellow, were added to each transwell. All tests were performed in triplicate, and each compound was tested for both apical to basolateral and basolateral to apical transport. The plates were incubated for 2 hours on a Lab-Line Instruments Titer Orbital Shaker (VWR, West Chester, PA) at 50 rpm and 37° C. with 5% CO2. All culture plates were removed from the incubator, 50 μL of media were removed from the apical and basolateral portion of each well, and added to 150 μL of 1 μM labetalol in 2:1 acetonitrile (ACN): H2O, v/v.
(§4) The plates were read using a Molecular Devices (Sunnyvale, CA) Gemini Fluorometer to evaluate the lucifer yellow concentrations at excitation/emission wavelengths of 425/535 nm. These values were accepted when found to be below 2% for apical to basolateral and 5% basolateral to apical flux across the MDR1-transfected LLC-PK1 or BCRP-transfected MDCKII cell monolayers. The plates were sealed, and the contents of each well analyzed by LC MS/MS. The compound concentrations were determined from the ratio of the peak areas of the compound to the internal standard (labetalol) in comparison to the dosing solution.
(§5) A MDS Sciex API 4000 (Applied Biosystems, Foster City, CA) mass spectrometer was used for detection of the analytes in the ion spray positive mode. Analyte responses were measured by multiple reaction monitoring (“MRM”) of transitions unique to each compound (the protonated precursor ion and selected product ions for each test article and m/z 329 to m/z 162 for labetalol, the internal standard.
(§6) The total run time, including re-equilibration, for a single injection was 1.2 minutes. […] The total run time, including re-equilibration, for a single injection was 0.61 minutes.
(§7) An efflux ratio is calculated from the mean apical to basolateral (A-B) Papp data and basolateral to apical (B-A) Papp data: Efflux ratio=Papp(B−A)/Papp(A−B)

[2] = biological target: ErbB2 with Exon 20 YVMA insertion (HER2-YVMA) (Homo sapiens (Human), UniProt P04626, INS775YVMA); experiment: Cellular phosphorylation assay, constitutive ErbB2 phosphorylation (Y1196) in engineered NIH 3T3 cells, Assay 4; format: cell-based
Summary of the method: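 Engineered NIH 3T3 cells expressing HER2-YVMA treated with compounds 1 h at 37 °C, then formaldehyde-fixed and methanol-permeabilized. pErbB2 Y1196 detected by in-cell infrared immunofluorescence, normalized to GAPDH. IC50 from the normalized curves.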

[3] = biological target: ErbB2 insYVMA (HER2-YVMA, SEQ ID NO: 2) (Homo sapiens, UniProt P04626, INS775YVMA/P1170A); experiment: biochemical; settings: ErbB2 insYVMA enzyme assay
Chain of ErbB2 insYVMA (HER2-YVMA, SEQ ID NO: 2) (P04626 with tags, fused parts or gaps INS775YVMA/P1170A limits assumed): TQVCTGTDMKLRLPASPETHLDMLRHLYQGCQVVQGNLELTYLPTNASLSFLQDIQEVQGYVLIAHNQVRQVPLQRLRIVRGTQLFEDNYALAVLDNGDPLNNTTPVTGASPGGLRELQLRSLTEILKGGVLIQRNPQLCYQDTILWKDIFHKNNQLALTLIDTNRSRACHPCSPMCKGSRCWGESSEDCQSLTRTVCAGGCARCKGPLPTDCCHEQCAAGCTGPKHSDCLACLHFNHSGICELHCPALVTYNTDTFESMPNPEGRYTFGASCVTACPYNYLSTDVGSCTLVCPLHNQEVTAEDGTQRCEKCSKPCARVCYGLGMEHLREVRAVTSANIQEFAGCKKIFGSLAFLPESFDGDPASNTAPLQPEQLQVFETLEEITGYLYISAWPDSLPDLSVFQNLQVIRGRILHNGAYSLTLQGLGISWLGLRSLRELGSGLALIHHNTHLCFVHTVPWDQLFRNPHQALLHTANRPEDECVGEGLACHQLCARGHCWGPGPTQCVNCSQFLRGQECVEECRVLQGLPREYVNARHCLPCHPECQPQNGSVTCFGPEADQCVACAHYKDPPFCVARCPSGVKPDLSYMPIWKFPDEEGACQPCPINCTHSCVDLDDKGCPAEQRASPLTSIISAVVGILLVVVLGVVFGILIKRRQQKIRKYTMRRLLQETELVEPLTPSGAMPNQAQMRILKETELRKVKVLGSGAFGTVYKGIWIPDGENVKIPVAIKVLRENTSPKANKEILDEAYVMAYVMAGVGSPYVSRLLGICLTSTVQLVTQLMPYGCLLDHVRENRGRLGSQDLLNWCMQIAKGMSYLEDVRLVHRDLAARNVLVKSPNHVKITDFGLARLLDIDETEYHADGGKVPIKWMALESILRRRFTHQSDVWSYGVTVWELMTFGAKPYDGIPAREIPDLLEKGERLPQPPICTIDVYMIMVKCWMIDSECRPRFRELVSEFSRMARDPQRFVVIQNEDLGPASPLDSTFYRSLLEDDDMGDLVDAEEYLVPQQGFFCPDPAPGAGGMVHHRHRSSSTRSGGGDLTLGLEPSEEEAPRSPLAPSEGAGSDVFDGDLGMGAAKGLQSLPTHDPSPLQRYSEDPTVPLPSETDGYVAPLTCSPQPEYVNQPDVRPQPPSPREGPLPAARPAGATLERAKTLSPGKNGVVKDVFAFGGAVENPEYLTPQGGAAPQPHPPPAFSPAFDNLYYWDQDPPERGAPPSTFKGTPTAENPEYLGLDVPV

BCRP [4] = biological target: T2, BCRP (Homo sapiens (Human), UniProt Q9UNQ0); experiment: BCRP transfected MDCKII permeability/efflux, Assay 8; format: in vitro ADME; settings: dog, efflux ratio Papp(B-A)/Papp(A-B), read-out: Assay 8 Pe Ratio
T2 sequence (Q9UNQ0 whole entry): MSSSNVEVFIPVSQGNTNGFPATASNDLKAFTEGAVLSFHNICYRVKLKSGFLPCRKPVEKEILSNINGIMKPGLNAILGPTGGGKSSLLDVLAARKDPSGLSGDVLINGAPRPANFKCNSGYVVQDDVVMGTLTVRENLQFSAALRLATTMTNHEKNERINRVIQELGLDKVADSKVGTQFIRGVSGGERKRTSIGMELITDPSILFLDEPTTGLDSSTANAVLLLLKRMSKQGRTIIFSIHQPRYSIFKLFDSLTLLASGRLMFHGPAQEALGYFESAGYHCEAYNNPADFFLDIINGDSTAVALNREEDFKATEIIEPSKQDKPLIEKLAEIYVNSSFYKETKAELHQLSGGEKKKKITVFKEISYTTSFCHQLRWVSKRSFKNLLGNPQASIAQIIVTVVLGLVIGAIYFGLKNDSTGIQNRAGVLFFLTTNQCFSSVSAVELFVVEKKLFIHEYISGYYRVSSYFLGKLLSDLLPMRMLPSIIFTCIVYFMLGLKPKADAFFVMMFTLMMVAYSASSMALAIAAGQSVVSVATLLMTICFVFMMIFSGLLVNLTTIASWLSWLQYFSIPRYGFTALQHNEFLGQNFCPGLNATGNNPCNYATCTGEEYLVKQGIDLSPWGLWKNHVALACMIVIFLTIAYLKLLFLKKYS
Protocol: BCRP transfected MDCKII cells (Assay 8) and BCRP transfected MDCKII canine Mdr1 knockout cells (Assay 9) were cultured and plated according to manufacturer's recommendations.
as §2, §3
The plates were read using a Molecular Devices (Sunnyvale, CA) Gemini Fluorometer to evaluate the lucifer yellow concentrations at excitation/emission wavelengths of 425/535 nm. […] The plates were sealed, and the contents of each well analyzed by LC MS/MS. The compound concentrations were determined from the ratio of the peak areas of the compound to the internal standard (labetalol) in comparison to the dosing solution.
as §5, §6, §7

MDR1 (P-gp) [5] = biological target: T1, MDR1 (P-gp); settings: dog, MDCK-MDR1, 2 h, 1 μM
BCRP [6] = biological target: T2, BCRP; settings: dog, 2 h, 1 μM
MDR1 (P-gp) [7] = biological target: T1, MDR1 (P-gp); settings: pig, LLC-PK1, 2 h, 1 μM
Protocol: as §1, §2, §3, §4, §5, §6, §7

SMILES | IC50 (ErbB2 WT) | IC50 (EGFR wild type (EGFR WT)) | IC50 (EGFR) | efflux ratio at 2 h, 1 μM (MDR1 (P-gp) [1]) | IC50 [2] | IC50 ([3]; read-out: Assay 1 IC50) | efflux ratio at 2 h, 1 μM (BCRP [4]) | IC50 ([3]; Assay 1 IC50 (nM)) | Assay 7 Pe Ratio (MDR1 (P-gp) [5]) | Assay 9 Pe Ratio (BCRP [6]) | Assay 6 Pe Ratio (MDR1 (P-gp) [7])
Cc1cc(Nc2ncnc3cnc(NC4(C)CC4)nc23)ccc1Oc1ccc2c(c1)ncn2C [Example 268] | 93.7 nM | ≥ 5000 nM | ≥ 10000 nM | 1.5 | 39 nM | 82 nM | 1.1 |  |  |  | 
Cc1cc(Nc2ncnc3cnc(NC4CCC4)nc23)ccc1Oc1ccc2c(c1)ncn2C [Example 14, N2-cyclobutyl-N8-(3-methyl-4-((1-methyl-1H-benzo[d]imidazol-5-yl)oxy)phenyl)pyrimido[5,4-d]pyrimidine-2,8-diamine] | 85.9 nM | ≥ 5000 nM | ≥ 10000 nM | 1.3 | 37 nM | 56.2 nM | 0.9 |  |  |  | 
Cc1cc(Nc2ncnc3cnc(N4CCOCC4)nc23)ccc1Oc1ccc2scnc2c1.O=C(O)C(F)(F)F [Example 82, N-(4-(benzo[d]thiazol-5-yloxy)-3-methylphenyl)-6-morpholinopyrimido[5,4-d]pyrimidin-4-amine 2,2,2-trifluoroacetate] | 204 nM | ≥ 5000 nM | 1220 nM | 1.3 | 54.7 nM |  | 1 | 47 nM |  |  | 
Cc1cc(Nc2ncnc3cnc(N4[C@H]5CC[C@@H]4[C@@H](O)C5)nc23)ccc1Oc1ccc2c(c1)ncn2C (racemic) [Example 105, ±(1R,2S,4S)-7-(8-((3-methyl-4-((1-methyl-1H-benzo[d]imidazol-5-yl)oxy)phenyl)amino)pyrimido[5,4-d]pyrimidin-2-yl)-7-azabicyclo[2.2.1]heptan-2-ol] | 48.5 nM | 5000 nM | 10000 nM |  | 39 nM | 56.7 nM |  |  | 2.0 | 8.6 | 
Cc1cc(Nc2ncnc3cnc(N(C)C)nc23)ccc1Oc1ccc2csnc2c1 [Example 49, N8-(4-(benzo[c]isothiazol-6-yloxy)-3-methylphenyl)-N2,N2-dimethylpyrimido[5,4-d]pyrimidine-2,8-diamine 2,2,2-trifluoroacetate] | 241 nM | ≥ 5000 nM | 2250 nM | 1.7 | 132 nM | 55.3 nM | 5.1 |  |  |  | 
Cc1cc(Nc2ncnc3cnc(N(C)C)nc23)ccc1Oc1ccc2scnc2c1 [Example 271] | 145 nM | 3080 nM | 1260 nM | 1.8 | 30.9 nM | 42.2 nM | 0.9 |  |  |  | 
Cc1cc(Nc2ncnc3cnc(N4[C@H]5CC[C@@H]4[C@H](O)C5)nc23)ccc1Oc1ccc2c(c1)ncn2C (racemic) [Example 104, ±(1R,2R,4S)-7-(8-((3-methyl-4-((1-methyl-1H-benzo[d]imidazol-5-yl)oxy)phenyl)amino)pyrimido[5,4-d]pyrimidin-2-yl)-7-azabicyclo[2.2.1]heptan-2-ol] | 18.2 nM | 5000 nM | 4680 nM |  | 31.8 nM | 18.6 nM |  |  | 1.4 | 16.0 | 
Cc1cc(Nc2ncnc3cnc(NCC4CC4)nc23)ccc1Oc1ccc2c(c1)ncn2C [Example 20, N2-(cyclopropylmethyl)-N8-(3-methyl-4-((1-methyl-1H-benzo[d]imidazol-5-yl)oxy)phenyl)pyrimido[5,4-d]pyrimidine-2,8-diamine] | 130 nM | ≥ 5000 nM | ≥ 10000 nM | 1.9 | 44.8 nM | 66.1 nM | 0.7 |  |  |  | 
Cc1c(Oc2ccc3c(c2)ncn3C)ccc(Nc2ncnc3cnc(N4CCOCC4)nc23)c1F [Example 263] | 137 nM | ≥ 5000 nM | ≥ 10000 nM | 0.9 | 16.1 nM | 57.6 nM | 1.5 |  |  |  | 
Cc1cc(Nc2ncnc3cnc(N4CCC45CCOC5)nc23)ccc1Oc1ccc2c(c1)ncn2C (racemic) [Example 111, rac-(R)—N-(3-methyl-4-((1-methyl-1H-benzo[c]imidazol-5-yl)oxy)phenyl)-6-(6-oxa-1-azaspiro[3.4]octan-1-yl)pyrimido[5,4-d]pyrimidin-4-amine] | 24 nM | 5000 nM | 3530 nM |  | 13 nM | 28.2 nM |  |  | 1.7 | 1.6 | 1.3
